# From PubChem BioAssay (NCI)
#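 GI50: concentration for 50% inhibition of growth. TGI marks complete inhibition of growth.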
# How the values were obtained:
# Assay in all cases: NCI tumour cell line growth inhibition, 384-well format
# 786-0 renal = tested on: 786-0 renal
# A549 NSCLC = tested on: A549 NSCLC
# ACHN renal = tested on: ACHN renal
# BT-549 breast = tested on: BT-549 breast
# CAKI-1 renal = tested on: CAKI-1 renal
# COLO 205 colon = tested on: COLO 205 colon
# EKVX NSCLC = tested on: EKVX NSCLC
# HCC-2998 colon = tested on: HCC-2998 colon
# HCT-15 colon = tested on: HCT-15 colon
# HL-60(TB) leukemia = tested on: HL-60(TB) leukemia
# HOP-62 NSCLC = tested on: HOP-62 NSCLC
# HOP-92 NSCLC = tested on: HOP-92 NSCLC
# HT29 colon = tested on: HT29 colon
# K-562 leukemia = tested on: K-562 leukemia
# KM12 colon = tested on: KM12 colon
# LOX IMVI melanoma = tested on: LOX IMVI melanoma
# MDA-MB-231 breast = tested on: MDA-MB-231 breast
# MDA-MB-435 melanoma = tested on: MDA-MB-435 melanoma
# MDA-MB-468 breast = tested on: MDA-MB-468 breast
# MOLT-4 leukemia = tested on: MOLT-4 leukemia
# NCI-H226 lung = tested on: NCI-H226 lung
# NCI-H23 lung = tested on: NCI-H23 lung
# NCI-H322M lung = tested on: NCI-H322M lung
# NCI-H460 NSCLC = tested on: NCI-H460 NSCLC
# NCI-H522 lung = tested on: NCI-H522 lung
# NCI/ADR-RES ovarian = tested on: NCI/ADR-RES ovarian
# OVCAR-4 ovarian = tested on: OVCAR-4 ovarian
# OVCAR-5 ovarian = tested on: OVCAR-5 ovarian
# OVCAR-8 ovarian = tested on: OVCAR-8 ovarian
# RPMI-8226 leukemia = tested on: RPMI-8226 leukemia
# RXF 393 renal = tested on: RXF 393 renal
# SF-268 CNS = tested on: SF-268 CNS
# SF-295 CNS = tested on: SF-295 CNS
# SF-539 CNS = tested on: SF-539 CNS
# SK-MEL-2 melanoma = tested on: SK-MEL-2 melanoma
# SK-MEL-28 melanoma = tested on: SK-MEL-28 melanoma
# SK-MEL-5 melanoma = tested on: SK-MEL-5 melanoma
# SK-OV-3 ovarian = tested on: SK-OV-3 ovarian
# SNB-19 CNS = tested on: SNB-19 CNS
# SNB-75 CNS = tested on: SNB-75 CNS
# SR leukemia = tested on: SR leukemia
# T-47D breast = tested on: T-47D breast
# TK-10 renal = tested on: TK-10 renal
# U251 glioblastoma = tested on: U251 glioblastoma
# UACC-257 melanoma = tested on: UACC-257 melanoma
# UACC-62 melanoma = tested on: UACC-62 melanoma
# UO-31 renal = tested on: UO-31 renal
smiles,measurement,setting,value
CCCS(=O)(=O)Nc1ccc(F)c(C(=O)c2c[nH]c3ncc(-c4ccc(Cl)cc4)cc23)c1F,GI50,786-0 renal,4.03 µM
same,TGI,786-0 renal,13.5 µM
same,GI50,A549 NSCLC,3.99 µM
same,TGI,A549 NSCLC,10.8 µM
same,GI50,ACHN renal,5.39 µM
same,TGI,ACHN renal,19.5 µM
same,GI50,BT-549 breast,5.9 µM
same,TGI,BT-549 breast,19.2 µM
same,GI50,CAKI-1 renal,3.69 µM
same,TGI,CAKI-1 renal,10.5 µM
same,GI50,COLO 205 colon,0.0425 µM
same,TGI,COLO 205 colon,1.18 µM
same,GI50,EKVX NSCLC,7 µM
same,TGI,EKVX NSCLC,12.7 µM
same,GI50,HCC-2998 colon,0.593 µM
same,TGI,HCC-2998 colon,1.96 µM
same,GI50,HCT-15 colon,5.83 µM
same,TGI,HCT-15 colon,13.5 µM
same,GI50,HL-60(TB) leukemia,0.902 µM
same,TGI,HL-60(TB) leukemia,5.03 µM
same,GI50,HOP-62 NSCLC,5.12 µM
same,TGI,HOP-62 NSCLC,14.9 µM
same,GI50,HOP-92 NSCLC,4.98 µM
same,TGI,HOP-92 NSCLC,12.1 µM
same,GI50,HT29 colon,0.146 µM
same,TGI,HT29 colon,10.4 µM
same,GI50,K-562 leukemia,1.66 µM
same,TGI,K-562 leukemia,3.43 µM
same,GI50,KM12 colon,4.11 µM
same,TGI,KM12 colon,13.1 µM
same,GI50,LOX IMVI melanoma,3.93 µM
same,TGI,LOX IMVI melanoma,11.6 µM
same,GI50,MDA-MB-231 breast,3.8 µM
same,TGI,MDA-MB-231 breast,8.85 µM
same,GI50,MDA-MB-435 melanoma,0.281 µM
same,TGI,MDA-MB-435 melanoma,14.6 µM
same,GI50,MDA-MB-468 breast,5.74 µM
same,TGI,MDA-MB-468 breast,9.38 µM
same,GI50,MOLT-4 leukemia,3.23 µM
same,TGI,MOLT-4 leukemia,8.74 µM
same,GI50,NCI-H226 lung,7.95 µM
same,TGI,NCI-H226 lung,17.2 µM
same,GI50,NCI-H23 lung,4.19 µM
same,TGI,NCI-H23 lung,13.2 µM
same,GI50,NCI-H322M lung,4.65 µM
same,TGI,NCI-H322M lung,16 µM
same,GI50,NCI-H460 NSCLC,4.97 µM
same,TGI,NCI-H460 NSCLC,13.6 µM
same,GI50,NCI-H522 lung,7.93 µM
same,TGI,NCI-H522 lung,16 µM
same,GI50,NCI/ADR-RES ovarian,9.06 µM
same,TGI,NCI/ADR-RES ovarian,22.4 µM
same,GI50,OVCAR-4 ovarian,8.45 µM
same,TGI,OVCAR-4 ovarian,20.6 µM
same,GI50,OVCAR-5 ovarian,4.41 µM
same,TGI,OVCAR-5 ovarian,21.3 µM
same,GI50,OVCAR-8 ovarian,7.8 µM
same,TGI,OVCAR-8 ovarian,15.7 µM
same,GI50,RPMI-8226 leukemia,3.38 µM
same,TGI,RPMI-8226 leukemia,6.5 µM
same,GI50,RXF 393 renal,2.36 µM
same,TGI,RXF 393 renal,6.45 µM
same,GI50,SF-268 CNS,7.88 µM
same,TGI,SF-268 CNS,15.8 µM
same,GI50,SF-295 CNS,3.34 µM
same,TGI,SF-295 CNS,5.93 µM
same,GI50,SF-539 CNS,4.33 µM
same,TGI,SF-539 CNS,10.5 µM
same,GI50,SK-MEL-2 melanoma,0.0758 µM
same,TGI,SK-MEL-2 melanoma,0.33 µM
same,GI50,SK-MEL-28 melanoma,0.0274 µM
same,TGI,SK-MEL-28 melanoma,0.388 µM
same,GI50,SK-MEL-5 melanoma,0.0794 µM
same,TGI,SK-MEL-5 melanoma,1.81 µM
same,GI50,SK-OV-3 ovarian,5.57 µM
same,TGI,SK-OV-3 ovarian,12 µM
same,GI50,SNB-19 CNS,8.27 µM
same,TGI,SNB-19 CNS,23.4 µM
same,GI50,SNB-75 CNS,5.79 µM
same,TGI,SNB-75 CNS,13.3 µM
same,GI50,SR leukemia,1.67 µM
same,TGI,SR leukemia,4.22 µM
same,GI50,T-47D breast,6.77 µM
same,TGI,T-47D breast,16.9 µM
same,GI50,TK-10 renal,13.5 µM
same,TGI,TK-10 renal,22.3 µM
same,GI50,U251 glioblastoma,4.35 µM
same,TGI,U251 glioblastoma,9.9 µM
same,GI50,UACC-257 melanoma,0.347 µM
same,GI50,UACC-62 melanoma,0.0345 µM
same,TGI,UACC-62 melanoma,0.912 µM
same,GI50,UO-31 renal,4.74 µM
same,TGI,UO-31 renal,16.6 µM
